# Data taken from ChEMBL document CHEMBL3600330, “Synthesis and biological evaluation of novel piperidine-benzodioxole derivatives designed as potential leishmanicidal drug candidates” (Bioorg Med Chem Lett, 2015).
# pIC50: −log10 of the molar value.
# Assays:
# Leishmania amazonensis [1] = test: Leishmanicidal activity against promastigote form of Leishmania amazonensis assessed as inhibition of parasite growth after 72 hrs by Neubauer's chamber method; assay type: functional, organism-based
# [2] = Selectivity ratio of CC50 for human PBMC to IC50 for promastigote form of Leishmania amazonensis
# [3] = (§1) Cytotoxicity against human PBMC assessed as cell viability after 48 hrs by MTT reduction assay; assay type: cell-based; settings: PBMC (peripheral blood mononuclear cells)
# PBMC = test: as §1; assay type: cell-based; settings: pbmc, 48 h
# Leishmania amazonensis [4] = test: Leishmanicidal activity against promastigote form of Leishmania amazonensis […] assessed as inhibition of parasite growth after 48 hrs by Neubauer's chamber method; assay type: functional, organism-based
Compound,pIC50 (Leishmania amazonensis [1]),Ratio CC50/IC50 [2],CC50 at 48 h [3],CC50 (PBMC),pIC50 (Leishmania amazonensis [4])
O=C(OCC1CCN(Cc2ccc3c(c2)OCO3)CC1)c1ccccc1,4.11,3.9,306 µM,,
O=C(OCC1CCN(Cc2ccc3c(c2)OCO3)CC1)c1ccc(Br)cc1,4.42,5.43,208 µM,,
O=C(OCC1CCN(Cc2ccc3c(c2)OCO3)CC1)c1ccc(F)cc1,4.24,7.33,420 µM,,
O=C(OCC1CCN(Cc2ccc3c(c2)OCO3)CC1)c1ccc2c(c1)OCO2,4.55,12.88,362 µM,,
O=C(OCC1CCN(Cc2ccc3c(c2)OCO3)CC1)c1ccc(Cl)cc1,< 3.99,,,Non-toxic,
O=C(/C=C/c1ccc2c(c1)OCO2)OCC1CCN(Cc2ccc3c(c2)OCO3)CC1,< 4.02,<10.06,950 µM,,
O=C(OCC1CCN(Cc2ccc3c(c2)OCO3)CC1)c1ccc([N+](=O)[O-])cc1,4.76,20.64,356 µM,,
COc1ccc(C(=O)OCC2CCN(Cc3ccc4c(c3)OCO4)CC2)cc1OC,4.36,39.76,1720 µM,,
CCCCCCNC(=O)OCC1CCN(Cc2ccc3c(c2)OCO3)CC1,4.54,5,143 µM,,
CCNC(=O)OCC1CCN(Cc2ccc3c(c2)OCO3)CC1,< 3.90,<19.48,2430 µM,,
O=C(/C=C/C=C/c1ccc2c(c1)OCO2)N1CCCCC1 [PIPERINE],,,,,4.84
